Measured values taken from article PMC11012124, “Synthesis of Novel Triazine-Based Chalcones and 8,9-dihydro-7H-pyrimido[4,5-b][1,4]diazepines as Potential Leads in the Search of Anticancer, Antibacterial and Antifungal Agents” (International Journal of Molecular Sciences, 2024).

Tests used:
[1] = tested on: 60 cancer cell lines; experiment: NCI-60 one-dose screen (10 μM); type: cell-based; details: Homo sapiens; one dose of 10 μM, mean over 60 cancer cell lines; read-out: Mean Growth Percent (MGP)
Text: Additionally, the mean of the growth percentages (MGP) of each compound against all the 60 cancer cell lines is also reported, which is used as one of the selection criteria to continue with tests at five concentration doses.

[2] = Hemolytic activity, spectrophotometric; type: cell-based, human; details: human, human red blood cells (huRBC), 5% hematocrit, 200 μg/mL, 37 °C
[3] = tested on: CCRF-CEM; experiment: cells; details: Homo sapiens, 48 h
[4] = tested on: HL-60(TB); experiment: cells; details: Homo sapiens, HL-60, 48 h
[5] = tested on: K-562; experiment: cells; details: Homo sapiens, K562, 48 h
[6] = tested on: MOLT-4; experiment: cells; details: Homo sapiens, MOLT-4, 48 h
[7] = tested on: RPMI-8226; experiment: cells; details: Homo sapiens, RPMI-8226, 48 h
[8] = tested on: A549/ATCC; experiment: cells; details: Homo sapiens, A549, 48 h
[9] = tested on: EKVX; experiment: cells; details: Homo sapiens, 48 h
[10] = tested on: HOP-92; experiment: cells; details: Homo sapiens, HOP-92, 48 h
[11] = tested on: NCI-H226; experiment: cells; details: Homo sapiens, NCI-H226, 48 h
[12] = tested on: NCI-H23; experiment: cells; details: Homo sapiens, NCI-H23, 48 h
[13] = tested on: NCI-H460; experiment: cells; details: Homo sapiens, NCI-H460, 48 h
[14] = tested on: HCC-2998; experiment: cells; details: Homo sapiens, HCC 2998, 48 h
[15] = tested on: HCT-116; experiment: cells; details: Homo sapiens, HCT-116, 48 h
[16] = tested on: SW-620; experiment: cells; details: Homo sapiens, SW-620, 48 h
[17] = tested on: SF-539; experiment: cells; details: Homo sapiens, SF-539, 48 h
[18] = tested on: SNB-75; experiment: cells; details: Homo sapiens, SNB-75, 48 h
[19] = tested on: LOX IMVI; experiment: cells; details: Homo sapiens, 48 h
[20] = tested on: MALME-3M; experiment: cells; details: Homo sapiens, 48 h
[21] = tested on: M14; experiment: cells; details: Homo sapiens, M14, 48 h
[22] = tested on: MDA-MB-435; experiment: cells; details: Homo sapiens, MDA-MB-435, 48 h
[23] = tested on: SK-MEL-28; experiment: cells; details: Homo sapiens, SK-MEL-28, 48 h
[24] = tested on: UACC-257; experiment: cells; details: Homo sapiens, UACC-257, 48 h
[25] = tested on: IGROV1; experiment: cells; details: Homo sapiens, IGROV-1, 48 h
[26] = tested on: OVCAR-5; experiment: cells; details: Homo sapiens, OVCAR-5, 48 h
[27] = tested on: OVCAR-8; experiment: cells; details: Homo sapiens, OVCAR-8, 48 h
[28] = tested on: SK-OV-3; experiment: cells; details: Homo sapiens, SK-OV-3, 48 h
[29] = tested on: A498; experiment: cells; details: Homo sapiens, A498, 48 h
[30] = tested on: ACHN; experiment: cells; details: Homo sapiens, 48 h
[31] = tested on: RXF 393; experiment: cells; details: Homo sapiens, RXF 393, 48 h
[32] = tested on: SN12C; experiment: cells; details: Homo sapiens, 48 h
[33] = tested on: TK-10; experiment: cells; details: Homo sapiens, TK-10, 48 h
[34] = tested on: PC-3; experiment: cells; details: Homo sapiens, PC-3, 48 h
[35] = tested on: MCF7; experiment: cells; details: Homo sapiens, MCF7, 48 h
[36] = tested on: MDA-MB-231/ATCC; experiment: cells; details: Homo sapiens, MDA-MB-231, 48 h
[37] = tested on: HS 578T; experiment: cells; details: Homo sapiens, 48 h
[38] = tested on: BT-549; experiment: cells; details: Homo sapiens, BT-549, 48 h

SMILES: Cc1ccc(/C=C/C(=O)c2ccc(S(=O)(=O)NCCNc3nc(Nc4ccc(F)cc4)nc(N(C)C)n3)cc2)cc1 [24b]
- activity at 10 µM [1]: 16.5%
- hemolysis at 24 h, 200 µg/mL [2]: 1.2%
- GI50 [3]: 5.28 µM
- CC50 ([3]; read-out: LC50): > 100 µM
- GI50 [4]: 5.58 µM
- CC50 ([4]; read-out: LC50): > 100 µM
- GI50 ([5]; K-562, 48 h): 3.89 µM
- CC50 ([5]; read-out: LC50): > 100 µM
- GI50 [6]: 3.86 µM
- CC50 ([6]; read-out: LC50): > 100 µM
- GI50 [7]: 2730 nM
- CC50 ([7]; read-out: LC50): > 100 µM
- GI50 [8]: 10.5 µM
- CC50 ([8]; read-out: LC50): 77.7 µM
- GI50 [9]: 4.96 µM
- CC50 ([9]; read-out: LC50): 43.3 µM
- GI50 [10]: 7.63 µM
- CC50 ([10]; read-out: LC50): 54 µM
- GI50 [11]: 10.4 µM
- CC50 ([11]; read-out: LC50): 63.9 µM
- GI50 [12]: 11.3 µM
- CC50 ([12]; read-out: LC50): 50 µM
- GI50 [13]: 4.22 µM
- CC50 ([13]; read-out: LC50): 52.3 µM
- GI50 [14]: 4.5 µM
- CC50 ([14]; read-out: LC50): 41 µM
- GI50 [15]: 1750 nM
- CC50 ([15]; read-out: LC50): 6.17 µM
- GI50 [16]: 7.53 µM
- CC50 ([16]; read-out: LC50): 49.4 µM
- GI50 [17]: 13 µM
- CC50 ([17]; read-out: LC50, SF-539, 48 h): 51.7 µM
- GI50 [18]: 7.59 µM
- CC50 ([18]; read-out: LC50): > 100 µM
- GI50 [19]: 4.12 µM
- CC50 ([19]; read-out: LC50, LOX IMVI, 48 h): 39.3 µM
- GI50 [20]: 16.4 µM
- CC50 ([20]; read-out: LC50): 60.9 µM
- GI50 [21]: 5.91 µM
- CC50 ([21]; read-out: LC50): 49.2 µM
- GI50 [22]: 6.03 µM
- CC50 ([22]; read-out: LC50): 61.7 µM
- GI50 [23]: 11.3 µM
- CC50 ([23]; read-out: LC50): 49.6 µM
- GI50 [24]: 17.4 µM
- CC50 ([24]; read-out: LC50): 62.9 µM
- GI50 [25]: 15.1 µM
- CC50 ([25]; read-out: LC50): 63.6 µM
- GI50 [26]: 14.9 µM
- CC50 ([26]; read-out: LC50): 53.7 µM
- GI50 [27]: 13 µM
- CC50 ([27]; read-out: LC50): 56 µM
- GI50 [28]: 17 µM
- CC50 ([28]; read-out: LC50): > 100 µM
- GI50 [29]: 12.6 µM
- CC50 ([29]; read-out: LC50): 51.4 µM
- GI50 [30]: 6.31 µM
- CC50 ([30]; read-out: LC50): 44.1 µM
- GI50 [31]: 4.98 µM
- CC50 ([31]; read-out: LC50): 44.9 µM
- GI50 [32]: 11.2 µM
- CC50 ([32]; read-out: LC50): 48.8 µM
- GI50 [33]: 15.2 µM
- CC50 ([33]; read-out: LC50): 61.9 µM
- GI50 [34]: 3.54 µM
- CC50 ([34]; read-out: LC50): 89.5 µM
- GI50 [35]: 2010 nM
- CC50 ([35]; read-out: LC50): 25.2 µM
- GI50 [36]: 6.56 µM
- CC50 ([36]; read-out: LC50): 48 µM
- GI50 [37]: 10.7 µM
- CC50 ([37]; read-out: LC50): > 100 µM
- GI50 [38]: 15.7 µM
- CC50 ([38]; read-out: LC50): 57.8 µM
